Converted amounts (≈) assume the structure as drawn.
Legend:
Type in all cases: functional
Details in all cases: Homo sapiens
HT-29 = test: Antitumor cytotoxic activity against HT-29 cell line was determined
RPTEC = test: Antitumor cytotoxic activity against RPTEC cell line was determined
SK-OV-3 = test: Antitumor cytotoxic activity against SK-OV-3 cell line was determined
A498 = test: Antitumor cytotoxic activity against A-498 cell line was determined
A549 = test: Antitumor cytotoxic activity against A-549 cell line was determined
PC-3 = test: Antitumor cytotoxic activity against PC-3 cell line was determined
HCT-15 = test: Antitumor cytotoxic activity against HCT-15 cell line was determined
SK-MEL-2 = test: Antitumor cytotoxic activity against SK-MEL-2 cell line was determined

Compound | GI50 (HT-29) [ng/mL] | GI50 (RPTEC) [ng/mL] | GI50 (SK-OV-3) [ng/mL] | GI50 (A498) [ng/mL] | GI50 (A549) [ng/mL] | GI50 (PC-3) [ng/mL] | GI50 (HCT-15) [ng/mL] | GI50 (SK-MEL-2) [ng/mL]
c1ccc(-c2cc(-c3ccsc3)cc(-c3ccccn3)n2)nc1 | 2.7 (≈ 0.00856 µM) | 4.7 (≈ 0.0149 µM) | 100 (≈ 0.317 µM) | 0.097 (≈ 0.000308 µM) | 620 (≈ 1.97 µM) | 1.7 (≈ 0.00539 µM) | 290 (≈ 0.919 µM) | 890 (≈ 2.82 µM)
c1ccc(-c2cc(-c3cccs3)cc(-c3cccnc3)n2)nc1 | 190 (≈ 0.602 µM) | 56 (≈ 0.178 µM) | 52000 (≈ 165 µM) | 2.9 (≈ 0.00919 µM) | 78900 (≈ 250 µM) | 31 (≈ 0.0983 µM) | 56100 (≈ 178 µM) | 77700 (≈ 246 µM)
c1ccc(-c2cc(-c3ccccn3)nc(-c3ccccn3)c2)cc1 | 1.4 (≈ 0.00453 µM) | 27 (≈ 0.0873 µM) | 120 (≈ 0.388 µM) | 2.5 (≈ 0.00808 µM) | 560 (≈ 1.81 µM) | 17 (≈ 0.055 µM) | 370 (≈ 1.2 µM) | 7500 (≈ 24.2 µM)
COc1cccc2c1C(=O)c1c(O)c3c(c(O)c1C2=O)C[C@@](O)(C(=O)CO)C[C@@H]3O[C@H]1C[C@H](N)[C@H](O)[C@H](C)O1 [DOXORUBICIN] | 4.6 (≈ 0.00846 µM) | 72 (≈ 0.132 µM) | 73 (≈ 0.134 µM) | 6.4 (≈ 0.0118 µM) | 92 (≈ 0.169 µM) | 29 (≈ 0.0534 µM) | 71 (≈ 0.131 µM) | 59 (≈ 0.109 µM)
c1ccc(-c2cc(-c3ccco3)cc(-c3ccccn3)n2)nc1 | 2.4 (≈ 0.00802 µM) | 4.1 (≈ 0.0137 µM) | 130 (≈ 0.434 µM) | 0.064 (≈ 0.000214 µM) | 220 (≈ 0.735 µM) | 2.5 (≈ 0.00835 µM) | 100 (≈ 0.334 µM) | 9900 (≈ 33.1 µM)
c1ccc(-c2cc(-c3cccs3)cc(-c3ccncc3)n2)nc1 | 520 (≈ 1.65 µM) | 650 (≈ 2.06 µM) | 48300 (≈ 153 µM) | 840 (≈ 2.66 µM) | 36200 (≈ 115 µM) | 220 (≈ 0.698 µM) | 15100 (≈ 47.9 µM) | 35200 (≈ 112 µM)
c1ccc(-c2cccc(-c3ccccn3)n2)nc1 [TERPYRIDINE] | 2.6 (≈ 0.0111 µM) | 14 (≈ 0.06 µM) | 72 (≈ 0.309 µM) | 0.097 (≈ 0.000416 µM) | 90 (≈ 0.386 µM) | 0.73 (≈ 0.00313 µM) | 71 (≈ 0.304 µM) | 100 (≈ 0.429 µM)
c1ccc(-c2cc(-c3ccoc3)cc(-c3ccccn3)n2)nc1 | 2.6 (≈ 0.00869 µM) | 5.8 (≈ 0.0194 µM) | 600 (≈ 2 µM) | 0.032 (≈ 0.000107 µM) | 80 (≈ 0.267 µM) | 4.4 (≈ 0.0147 µM) | 60 (≈ 0.2 µM) | 330 (≈ 1.1 µM)
c1ccc(-c2cc(-c3ccsc3)cc(-c3cccnc3)n2)nc1 | 360 (≈ 1.14 µM) | 310 (≈ 0.983 µM) | > 100000 | 640 (≈ 2.03 µM) | > 100000 | 54 (≈ 0.171 µM) | > 100000 | > 100000
c1ccc(-c2cc(-c3cccnc3)nc(-c3ccccn3)c2)cc1 | 330 (≈ 1.07 µM) | 360 (≈ 1.16 µM) | 49600 (≈ 160 µM) | 74 (≈ 0.239 µM) | 44800 (≈ 145 µM) | 280 (≈ 0.905 µM) | 40900 (≈ 132 µM) | 89200 (≈ 288 µM)
